Entries after “also recorded” stand apart in the source; their conditions may differ. Marks after values point to notes of the source that are not given here. Non-standard residues stand in square brackets, D forms with d. No end group written: not given here.
Columns and labels:
[1] = system: rat model of renal bilateral ischemia/reperfusion; test: Renal bilateral ischemia/reperfusion, first phase (1 hour ischemia, 3 hour reperfusion); type: in vivo, Wistar rats; conditions: 1 h ischemia, 3 h reperfusion; for Glomerular Filtration Rate / Renal Plasmatic Flow / Urine output during the reperfusion period: EGF 20 μg; for Glomerular Filtration Rate / Renal Plasmatic Flow: GHRP-6 50 μg, combination EGF 5 μg + GHRP-6 10 μg per rat i.p.; for Urine output during the reperfusion period: i.p. 30 min before ischemia, GHRP 50 μg, combination EGF 5 μg + GHRP-6 10 μg per rat, mean and SD; for Renal failure / oliguria, result in words: versus saline-treated ischemic controls
Method: The potential nephroprotective effects of each of the peptides alone or in combination was studied in a rat model of renal bilateral ischemia/reperfusion. In a first phase trial, a ischemia period of 1 hour followed by a 3 hour reperfusion period was established. Female Wistar rats (200-220 g) were randomly assigned to the following experimental groups (N=10):
Group II: Ischemic and normal saline solution 0.9%.
Group IV: Ischemic and GHRP −6-50 μg/rat.
All the treatments were intraperitoneally administered 30 minutes before ischemia.
(§1) Renal arteries were clamped with microvascular clamps (Moria, Fine Science Tools, USA) for 60 minutes. After 3 hours of reperfusion the animals were monitored for another 30 minutes to establish renal functioning.
(§2) Glomerular filtration rate (GFR) and the renal plasmatic flow (RPF) were studied using molecular weight markers as inulin and p-amino hypuric. Clearance coefficients were determined as follows:
Uv(m) maximal urine volume per minute. […]
(§3) A catheter was fixed in the urinary bladder and the urethra was clamped. The free end of the catheter was inserted in a graduated tube and the urine volume was collected during 10 minutes.
Renal tissue samples were homogenized in KCI/histidine (pH7.3) buffer and the supernatant was used to measure the activity of the enzymes PLA2, catalase, as the MDA reactive metabolite.
Renal tissue samples were fixed in 10% buffered formalin, paraffin embedded, H&E stained and studied by independent pathologists using the following criteria: number of collapsed glomeruli, cortical hemorrhage, medullar hemorrhage, severe tubular damage, and severe interstitial damage. […] GHRP-6 intervention increased urine formation 4 times as compared to saline treated animals, which argues in favor of renal functional protection.

[2] = system: rat model of renal bilateral ischemia/reperfusion; test: Renal ischemia/reperfusion, second phase (3 hours ischemia, similar reperfusion time); type: in vivo, Wistar rats; conditions: 3 h ischemia; for Urine output during the reperfusion period: EGF 20 μg, GHRP 50 μg, combination, mean and SD
Method: as §1, §2, §3
Renal tissue samples were fixed in 10% buffered formalin, paraffin embedded, H&E stained and studied by independent pathologists using the following criteria: number of collapsed glomeruli, cortical hemorrhage, medullar hemorrhage, severe tubular damage, and severe interstitial damage.
During a second phase study, a larger ischemia period was introduced which allowed for studying the effect of the peptide in a more practical model with respect to the clinical practice. Kidneys were exposed to a 3 hours ischemia period and a similar reperfusion time.

[3] = system: Intestinal Ischemia/Reperfusion Model; test: Intestinal ischemia/reperfusion model (2 hours ischemia, 3 hours reperfusion); type: in vivo, Sprague Dawley rats; conditions: 2 h ischemia, 3 h reperfusion
Method: Male Sprague Dawley (220-250 g) rats were randomly assigned to the following treatment groups: I: ischemia/normal saline. […] III: Ischemia/GHRP-6 100 μg/rat. IV: Ischemia/combination -EGF (5 μg)/GHRP-6 (2 μg)/rat. All the treatments were intraperitoneally administered 30 minutes prior to beginning the ischemia period. […] The artery was clamped for a period of 2 hours, thus provoking a severe ischemia time on the jejunum and ileum portions of the small intestine. Reperfusion was allowed for 3 hours. Rats were euthanized and subjected to complete autopsy. The small intestine was resected and the length of hemorrhagic mucosal and/or luminal damage was registered. Luminal content was flushed out with a standard volume of saline to determine the hemoglobin content. Intestinal mucosa was washed with warm normal saline, weighed and fragments used to determine total protein content by Lowry method. Other fragments were used for total DNA content and microscopic analysis. Villi/mucosal damage was microscopically analyzed as described by Chiu. This scale considers Grade 0 as intact mucosa progressing to Grade 5 as full-thickness denudation.

[4] = system: Experimental Model of Multiple Organ Damage by Extensive Burns; test: Multiple organ damage by extensive burns (25% body surface scald), intestinal regeneration; type: in vivo, Balb/c mice; conditions: for Final weight (body weight) / % Increase of body weight: 10th day following scalding; for Final weight (body weight): after 20 administrations, table prints EGF 0.01 μg, GHRP 0.01 μg, mean and SD, in g (unit assumed); for Crypts depth / No. of crypts in fission (×200) / Villous height / No. of metaphases per crypt (×200): day 10 post-scalding; for % Increase of body weight: initial to final weight; for No. of metaphases per crypt (×200): vincristine 1 mg/kg six hours prior to death
Method: The dorsal region of Balb/c mice (22-25 g) was depilated and subjected to hypodermic scalding involving a 25% of body surface area, by immersion in equilibrated water at 95-97° C. for 5 seconds. All the mice received 1.5 ml of normal saline solution as fluid resuscitation immediately after. This animal model had been previously established and calibrated in our laboratory, and is useful to our goals as extensive internal changes are steadily reproduced. On the next 24 hours the surviving mice were randomly assigned to the following groups: Reference. Sham burned mice receiving saline 0.9% (N=5). Scalded receiving only normal saline 0.9%. […] Scalded and treated with GHRP-6 (N=9; 0.1 μg GHRP-6/animal). Scalded, treated with the peptide combination (N=10). […] Administrations were done twice a day and until day 10 post-scalding. Once the treatments were completed, animals were weighed again and euthanized for necropsy and microscopic examination. Six hours prior to death, every mouse received an injection of vincristine (1 mg/kg) to arrest cells on metaphase. Intestines were resected, flushed and weighed. Fragments were collected for total DNA and protein content. Other fragments were formalin fixed and used for routine processing or intestinal microdissection of villi and crypts. Morphometric procedures on the microscopic slides were derived from the […] image processing system. The following parameters were considered in this study: Animal weight. Intestinal weight, protein and DNA content. Number of cells in metaphase per crypt. Number of branching crypts. Villous height. Crypts depth.

[5] = system: gastric mucosa of animals exposed to a severe systemic stress; test: Acute gastric stress damage model (cold swim and restraint); type: in vivo, OF-1 mice
Method: Adult, male OF-1 mice (20-23 g) were randomly assigned to receive GHRP-6 (0.1 μg/animal) or normal saline solution 0.9% (both i.p.). Ten to thirty minutes later animals were forced to swim in cold water for 30 minutes and later restrained for another 20 minute period at 4° C. Animals were thereafter anesthetized and euthanized for gastric mucosa inspection. Samples were fixed in 10% buffered formalin and H&E, and PAS stained for microscopic examination. Erosion, hemorrhage, and ulceration were the gross pathology criteria considered in the experiment (Playford RJ. Peptides and gastrointestinal mucosa integrity. Gut 1995, 37: 595-597). Microscopic ulceration was only considered when deeper than the first third of the glandular mucosa. Luminal bleeding was studied by measuring hemoglobin by the cyano metahemoglobin method (Reactivos Spinreact, Barcelona). Data were expressed in g/dL. All determinations were done in a blind fashion using a sham group.

[6] = system: Intestinal Ischemia/Reperfusion Model; test: Survival after intestinal ischemia/reperfusion, monitored for 96 hours; type: in vivo, Sprague Dawley rats; conditions: 96 hours of reperfusion; N = 10; EGF 500 μg, GHRP-6 100 μg, EGF 5 μg + GHRP-6 2 μg
Method: In order to fully elucidate the protective effect of the combination treatment in this model of intestinal ischemia/reperfusion, survival was monitored until 96 hours of reperfusion.
A second and independent experiment was conducted in order to learn if the combination stimulated animals' survival. Experimental methodology is as described above. All the rats received an intraperitoneal injection of lactated Ringer following wound closure. Animals were monitored for 96 hours once reperfusion was initiated. […] (Table 9).

[7] = EGF 500 μg, GHRP-6 100 μg, combination EGF 5 μg + GHRP-6 2 μg per rat i.p.
[8] = GHRP-6 0.1 μg/animal i.p. 10-30 min before stress, 20 mice per group

Substance	Glomerular Filtration Rate [1] [ml/min/100 g]	Renal Plasmatic Flow [1] [ml/min/100 g]	Urine output during the reperfusion period [1]	Renal failure / oliguria, result in words [1]	Nephroprotection / urine volume, result in words [2]	Percent of animals/group showing Cortical Hemorrhage [2]	Percent of animals/group showing Damaged Glomeruli [2]	Percent of animals/group showing Interstitial Damage [2]	Percent of animals/group showing Medullar Hemorrhage [2] [%]	Urine output during the reperfusion period [2]	Intestinal mucosal protection, result in words [3]	Final weight (body weight) [4]	Crypts depth [4] [μm]	No. of crypts in fission (×200) [4]	Villous height [4] [μm]	% Increase of body weight [4] [%]	No. of metaphases per crypt (×200) [4]	further results
EGF: Epidermal Growth Factor of natural, synthetic or recombinant origins	0.3 ± 0.15	1.2 ± 0.61	114 ± 51	attenuated the oliguria; also recorded: partially attenuate renal failure	negligible and contains hemoglobin	70%	80%	80%	80	83 ± 21	minimal protection	28.2 ± 3.3	48 ± 9	25 ± 8	118.7 ± 19	27	101 ± 35	Glomerular Filtration Rate [2]: 0.24 ± 0.15 ml/min/100 g; Renal Plasmatic Flow [2]: 0.6 ± 0.05 ml/min/100 g; DMA content [3, 7]: 0.4 ± 0.11 µg/cm; Luminal hemoglobin [3, 7]: 3.5 ± 1.02 g/dL; Mucosal Weight [3, 7]: 10.7 ± 4.5 g; Proteins Content [3, 7]: 1.08 ± 0.6 mg/cm; % of intestinal damage ([3]; i.p. 30 min before ischemia, EGF 500 μg, GHRP-6 100 μg, combination EGF 5 μg + GHRP-6 2 μg per rat, mean and SD): 78.7 ± 2.8%
H[dW]AW[dF]K-NH2 [GHRP-6]	0.46 ± 0.23	1.88 ± 0.8	208 ± 47	partially attenuate renal failure	Partial nephroprotection	40♦ percent	60♦ percent	30♦ percent	80	168 ± 33	partial protection	28.4 ± 1.8	40.8 ± 13	19 ± 6	99.2 ± 10	23	59 ± 12	Epithelial Erosion, number of animals [5, 8]: 6; Epithelial Erosion, percent of animals [5, 8]: 30%; Luminal Hemorrhage, number of animals [5, 8]: 0 (0%)*; Luminal Hemorrhage, percent of animals [5, 8]: 0 (0%)*; Mucosal Hemorrhage, number of animals [5, 8]: 0 (0%)*; Mucosal Hemorrhage, percent of animals [5, 8]: 0 (0%)*; Total of ulcers ([5]; GHRP-6 0.1 μg/animal i.p., 20 mice per group): 3*; Luminal hemoglobin ([5]; GHRP-6 0.1 μg/animal i.p., cyano metahemoglobin method): 0* g/dL; Increase of urine formation compared to saline treated animals ([1]; GHRP-6 50 μg/rat i.p.): 4 times; Percent of animals/group showing Tubular Damage [2]: 50♦ percent; Survival (%) [6]: 40%

Source: patent US7361638B2, “Pharmaceutical combination for the treatment of tissue damage owing to an arterial irrigation defect” (Centro de Ingenieria Genetica y Biotecnologia, priority 2001, dated 2008)
